Test results: US11046720B2, “Dimethylphosphine oxide compound” (GUIZHOU INOCHINI TECHNOLOGY CO., LTD, priority 2018, dated 2021)
Like-named read-outs stand apart in the source and are kept apart here.

Key:
[1] = Pharmacokinetic evaluation in C57BL/6 mice, brain tissues and plasma; format: in vivo; conditions: oral, 5 mg/kg; for Kp / AUC(0-t) / half-life / Tmax / Cmax: male, C57BL/6, mouse; for Kp: brain/plasma, read-out: drug concentration ratio between brain tissues and plasma (B/P)
Protocol: Experimental purpose: to study pharmacokinetics of the compounds in vivo in C57BL/6 mice—drug concentration ratio between brain tissues and plasma
Experimental materials: C57BL/6 mice (male, 8 weeks old, weight: 25 g-30 g)
Assay Pharmacokinetic Features of Glires after they are Orally Administered the Compounds According to Standard Schemes.
In the experiment, the candidate compounds are prepared into 1 mg/mL mixed suspension, and mice are orally administered once. The menstruum for oral administration is 10% dimethyl sulfoxide (DMSO)/10% polysorbate/20% PEG-400 aqueous solution. This project uses male C57BL/6 mice, which are orally administered drugs at a dose of 5 mg/kg. Collect the whole brain 0.5, 1, 2 and 4 hours after the administration. Homogenize tissue samples with 15 mM [[…] (pH=7.4) buffer and methanol (volume ratio: 2:1)] at a ratio of 1:5 (w:v). Equally divide the homogenate into 2 samples: one for assay and the other for standby use. Besides, collect plasma 0.5, 1, 2 and 4 hours after administration. Centrifugate with 3,000 g relative centrifugal force within half an hour after collection at about 4° C. for 15 minutes to separate supernatant and obtain plasma samples. Store the plasma samples in polypropylene tubes; rapidly freeze them on dry ice and keep them at −80° C. till LC/MS/MS assay. Add internal standard precipitated protein of acetonitrile solution and fully mix them to extract supernatant samples via centrifugation. Quantitatively analyze plasma concentration by LC-MS/MS assay and calculate pharmacokinetic parameters such as maximal concentration (Cmax), half-life (T1/2), maximal time (Tmax), drug concentration in different tissues after administration (AUC0-last), and drug concentration ratio between brain tissues and plasma (B/P).

[2] = target: T1, LRRK2 full-length human recombinant protein (Homo sapiens, UniProt Q5S007); assay: In vitro evaluation of LRRK2 kinase inhibitory activity (HTRF / TR-FRET, LRRKtide); format: biochemical; conditions: 57 μM ATP, 0.4 uM Fluorescein-ERM (LRRKtide) peptide
T1 construct: express LRRK2 full-length human recombinant protein in Sf9 cells of insects; GST; made in house; host or cells: Sf9 insect cells (baculovirus)
Protocol: Experimental purpose: to detect transfer of energy signals (ratio of fluorescence signals: […]) after the phosphate group of phosphorylated Fluorescein-ERM (LRRKtide) peptide binds with LanthaScreen® Tb-pERM (pLRRKtide) antibody using homogeneous time-resolved fluorescence. Calculate IC50 for LRRK2 inhibition of the compound to be assayed.
1. Reaction solution: 10 mM 4-(2-hydroxyethyl) piperazine-1-ethanesulfonic acid (pH 7.5); 2 mM magnesium chloride; 0.5 mM glycol-bis-(2-aminoethylether)-N; 0.002% primary alcohol ethoxylate, 1 mM dithiothreitol and 1% DMSO;
2. Assay solution: TR-FRET Dilution Buffer;
3. LRRK2 human recombinant protein: use GST tag and baculovirus to express LRRK2 full-length human recombinant protein in Sf9 cells of insects;
4. Substrate: 0.4 uM Fluorescein-ERM (LRRKtide) peptide; 57 uM ATR
Resonance energy transfer of Fluorescein-ERM (LRRKtide) peptide and LanthaScreen® Tb-pERM (pLRRKtide) antibody between […].
1. Add DMSO solution of the compound to be assayed through the Echo550 non-contact nano-liter acoustic droplet ejection system;
2. Prepare mixed solution of enzyme and polypeptide with freshly prepared reaction solution. Add the mixed solution to the reaction cavity and warm it up at room temperature for 20 minutes in advance;
3. Add 57 μM ATP to initiate reaction, which lasts for 90 minutes at room temperature;
4. Add fluorescein-ERM (LRRKtide) peptide, LanthaScreen® Tb-pERM (pLRRKtide) antibody and 10 mM ethylene diamine tetraacetic acid to the assay system. The reaction lasts for 60 minutes at room temperature. Detect yellow light signals with Em/Ex 520/485.
5. Measure enzyme activity inhibition relative to DMSO blank control group according to the signal ratio, and calculate IC50 by fitting curves with the software XLfit5.

LRRK2 (pSer935) = target: T2, LRRK2 (pSer935) (Homo sapiens, UniProt Q5S007); assay: In vitro evaluation of inhibitory activity for LRRK2 cell (pSer935), 293T cells transfected with pcmv-flag-lrrk2, MSD; format: cell-based
T2 construct: expressed in transfected cells; host or cells: 293T cells
Protocol: Take 293T cells out of liquid nitrogen and put them in water at 37° C. After ice has fully thawed, transfer the cells to 5 mL warm culture medium. Discard the supernatant through centrifugation, and culture the suspended cells in the culture medium as new cells.
Culture the 293T cells in the culture medium for two to three days.
Plant 1.4×10^6/293T cells on a culture plate. After two days of culturing, cells will multiply to 5×10^6, so planting cells on N+1 plates is enough for performing experiments on N 96-well plates.
1) Add 5 μl (0.5 μg/μl) pcmv-flag-Irrk2 to 145 μl DMEM culture medium, and mix them evenly with a straw;
6) Incubate the culture plate inside a humidified incubator with 5% carbon dioxide for 20 to 24 hours at 37° C.
3. (Day 3) Plant the 293T Cells on the 96-Well Plate;
3) Transfer 50 μl inhibitor containing culture medium to the cell culture plate;
4) Incubate the culture plate inside a humidified incubator with 5% carbon dioxide for 20 to 24 hours at 37° C.;
5) Extract 300 μl inhibitor containing culture medium with a dropper. Take 200 μl inhibitor containing culture medium and add 100 μl decomposer into the culture medium. After the plate has been sealed, it shall be shaken for 30 minutes at 4° C.
1) Add 2 μg/25 μl labeled antibody to the MSD plate to incubate for 2 hours; (50 μl 3.9 μg/μl Flag antibody+2.5 ml fetal bovine serum per plate). Maintain centrifugation for 10 s (1,000 rpm);
5) Transfer 12.5 μl lysis buffer and 12.5 μl cell lysis buffer to the MSD plate to incubate for 1 hour at room temperature;
7) Dilute ps935 antibody at 1:200, and add 25 μl antibody to incubate for 1 hour;
9) Dilute goat anti-rabbit antibody at 1:500, and add 25 μl antibody to the incubation plate to incubate for 1 hour;
13) After incubation for about 3 minutes, read data over 15 minutes.

[3] = test system: LRRK2 phosphorylation in brain tissues; assay: In vivo pharmacological experiment: LRRK2 phosphorylation in brain tissues of mice (western blot); set-up: species or system C57BL/6J mice; conditions: oral, 10 mg/kg, once, 1 hour after administration
Protocol: Animals: C57BL/6J mice (male, 6-7 weeks old, weight: 20 g-22 g).
Grouping: Weigh all mice one day ahead of the experiment and divide them into 6 groups at random according to their weight, with 4 mice in each group. Exclude too heavy and too light mice, to ensure that average weight of all groups is the same.
The animals of each group are orally administered menstruum or the compound to be assayed in chronological order as shown in Table 4. One mouse is administered every 2 minutes. 1 hour after administration, all animals are successively euthanized with carbon dioxide in chronological order.
(1) After protein determination of brain tissue samples by BCA, apply 4% to 15% precast gel in an equal amount of protein samples.
(3) Perform protein electrophoresis at 200 V for 30 minutes. Then, use Midi PVDF Transfer Packs for membrane transfer for 7 minutes. Next, block them with TBS Blocker at room temperature for 1 hour.
(4) Prepare 5% milk with skimmed milk powder. Then, formulate antibodies P-LRRK2 (add 20 μl antibody to 5 mL 5% milk at 1:250), total-LRRK2 (add 10 μl antibody to 5 ml 5% skimmed milk at 1:500), p-Rabl0 (add 10 μl antibody to 5 mL 5% skimmed milk at 1:500) and p-actin (add 5 μl antibody to 5 mL 5% milk at 1:1000), and incubate the antibodies overnight. (5) Recycle the primary antibodies and rinse membranes with TBS for three times, 10 minutes each time. […]

[4] = brain tissues, read-out: AUC0-last Brain Tissues
[5] = brain tissues, read-out: T1/2 Brain Tissues (converted)
[6] = brain tissues, read-out: Tmax Brain Tissues
[7] = plasma, read-out: AUC0-last Plasma
[8] = plasma, read-out: T1/2 Plasma (converted)

T1 sequence (Q5S007 whole entry): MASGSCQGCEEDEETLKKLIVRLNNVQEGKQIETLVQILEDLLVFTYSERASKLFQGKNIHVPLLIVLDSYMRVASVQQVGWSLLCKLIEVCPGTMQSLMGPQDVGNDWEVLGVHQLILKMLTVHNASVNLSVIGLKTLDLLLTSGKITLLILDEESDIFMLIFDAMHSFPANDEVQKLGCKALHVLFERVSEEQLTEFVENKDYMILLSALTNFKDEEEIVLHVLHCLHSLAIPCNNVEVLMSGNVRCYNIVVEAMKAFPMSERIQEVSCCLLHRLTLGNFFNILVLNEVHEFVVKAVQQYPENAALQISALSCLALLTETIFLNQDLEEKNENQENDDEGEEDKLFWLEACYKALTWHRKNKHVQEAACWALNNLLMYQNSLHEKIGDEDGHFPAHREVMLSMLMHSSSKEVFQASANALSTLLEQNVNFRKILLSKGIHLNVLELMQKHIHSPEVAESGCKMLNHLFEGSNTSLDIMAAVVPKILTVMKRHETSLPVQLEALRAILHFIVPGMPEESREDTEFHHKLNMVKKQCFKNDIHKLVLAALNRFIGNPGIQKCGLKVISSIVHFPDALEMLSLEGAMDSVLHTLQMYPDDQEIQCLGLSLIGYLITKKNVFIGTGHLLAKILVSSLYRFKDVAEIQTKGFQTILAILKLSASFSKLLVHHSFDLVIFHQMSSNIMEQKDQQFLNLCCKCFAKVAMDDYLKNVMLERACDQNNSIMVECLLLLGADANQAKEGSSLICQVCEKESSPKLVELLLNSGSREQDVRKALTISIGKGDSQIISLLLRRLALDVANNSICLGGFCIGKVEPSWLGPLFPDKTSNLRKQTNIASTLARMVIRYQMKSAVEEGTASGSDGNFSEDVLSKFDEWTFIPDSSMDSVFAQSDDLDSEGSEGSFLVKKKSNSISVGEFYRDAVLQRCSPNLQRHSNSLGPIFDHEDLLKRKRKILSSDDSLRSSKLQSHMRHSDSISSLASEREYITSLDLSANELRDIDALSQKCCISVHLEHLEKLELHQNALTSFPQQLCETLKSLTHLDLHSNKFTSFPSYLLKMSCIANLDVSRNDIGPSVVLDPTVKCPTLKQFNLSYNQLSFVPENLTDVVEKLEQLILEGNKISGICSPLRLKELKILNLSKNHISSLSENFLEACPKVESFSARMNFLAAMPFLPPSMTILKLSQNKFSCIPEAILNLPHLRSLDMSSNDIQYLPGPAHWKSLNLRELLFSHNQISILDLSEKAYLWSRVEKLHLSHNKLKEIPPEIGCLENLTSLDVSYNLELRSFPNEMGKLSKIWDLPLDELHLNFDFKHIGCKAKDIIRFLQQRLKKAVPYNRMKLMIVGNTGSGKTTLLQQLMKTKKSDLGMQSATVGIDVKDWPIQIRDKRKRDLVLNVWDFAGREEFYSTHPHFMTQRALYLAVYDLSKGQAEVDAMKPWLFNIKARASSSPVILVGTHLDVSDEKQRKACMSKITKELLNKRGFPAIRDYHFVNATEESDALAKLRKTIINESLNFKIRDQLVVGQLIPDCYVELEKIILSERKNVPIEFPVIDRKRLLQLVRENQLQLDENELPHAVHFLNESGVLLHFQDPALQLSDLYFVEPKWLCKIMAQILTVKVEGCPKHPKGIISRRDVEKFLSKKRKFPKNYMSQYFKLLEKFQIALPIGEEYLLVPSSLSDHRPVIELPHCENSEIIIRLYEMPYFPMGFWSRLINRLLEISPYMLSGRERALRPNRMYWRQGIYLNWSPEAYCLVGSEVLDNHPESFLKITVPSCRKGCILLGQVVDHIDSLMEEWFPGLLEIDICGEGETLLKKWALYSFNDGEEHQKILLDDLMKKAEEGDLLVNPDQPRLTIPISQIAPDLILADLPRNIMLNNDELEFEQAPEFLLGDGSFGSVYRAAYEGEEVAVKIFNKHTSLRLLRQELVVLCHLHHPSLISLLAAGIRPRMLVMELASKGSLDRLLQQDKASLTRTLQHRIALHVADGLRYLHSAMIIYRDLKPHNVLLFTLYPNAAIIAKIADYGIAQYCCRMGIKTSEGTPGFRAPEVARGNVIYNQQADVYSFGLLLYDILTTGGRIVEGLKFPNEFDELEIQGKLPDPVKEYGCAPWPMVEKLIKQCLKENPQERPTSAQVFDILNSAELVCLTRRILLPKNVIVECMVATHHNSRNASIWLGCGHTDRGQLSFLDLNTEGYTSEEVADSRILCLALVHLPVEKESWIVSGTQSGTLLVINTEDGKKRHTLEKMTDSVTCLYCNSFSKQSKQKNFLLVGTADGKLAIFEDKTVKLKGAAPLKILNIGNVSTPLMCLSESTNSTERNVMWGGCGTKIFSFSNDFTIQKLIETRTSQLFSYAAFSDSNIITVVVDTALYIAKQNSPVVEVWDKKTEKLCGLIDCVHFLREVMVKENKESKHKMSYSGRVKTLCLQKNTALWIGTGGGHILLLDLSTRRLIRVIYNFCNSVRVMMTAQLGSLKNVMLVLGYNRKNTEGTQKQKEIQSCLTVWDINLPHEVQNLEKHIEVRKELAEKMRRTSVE
T2 sequence (Q5S007 whole entry): as above

Structure (SMILES) | Kp [1] | AUC(0-t) [1, 4] | Tmax [1, 6] | Cmax ([1]; plasma) | AUC(0-t) [1, 7] | Tmax ([1]; plasma, read-out: Tmax Plasma) | Cmax Brain Tissues ([1]; brain tissues) | IC50 [2] | IC50 (LRRK2 (pSer935)) | further results
COc1nc(N2CC3(COC3)C2)ccc1Nc1ncc(Cl)c(Nc2ccccc2P(C)(C)=O)n1 [Embodiment 12] | 0.14 | 0.476 µM·h | 30 min | 3630 nM | 3.46 µM·h | 30 min | 576 nM | 1.6 nM | 3.7 nM | half-life [1, 5]: 23.4 min; half-life [1, 8]: 36 min
COc1nc(N2CC3(C2)CC(F)(F)C3)ccc1Nc1ncc(Cl)c(Nc2ccccc2P(C)(C)=O)n1 [Embodiment 13] | 0.52 | 1.16 µM·h | 30 min | 1200 nM | 2.25 µM·h | 30 min | 726 nM | 9.1 nM | – | half-life [1, 5]: 43.2 min; half-life [1, 8]: 58.8 min
COc1nc(N2CCC3(CCCCO3)C2)ccc1Nc1ncc(Cl)c(Nc2ccccc2P(C)(C)=O)n1 (stereo not drawn) [Embodiment 4] | – | – | – | – | – | – | – | 34.2 nM | – | –
COc1c(Nc2ncc(Cl)c(Nc3ccccc3P(C)(C)=O)n2)ccnc1N1CC2(COC2)C1 [Embodiment 22] | – | – | – | – | – | – | – | 2.6 nM | 44 nM | –
COc1nc(N2CCC3(CCCOC3)C2)ccc1Nc1ncc(Cl)c(Nc2ccccc2P(C)(C)=O)n1 (stereo not drawn) [Embodiment 2] | – | – | – | – | – | – | – | 24.4 nM | – | –
COc1nc(N2CCC3(CCOCC3)CC2)ccc1Nc1ncc(Cl)c(Nc2ccccc2P(C)(C)=O)n1 [Embodiment 8] | – | – | – | – | – | – | – | 7.2 nM | – | –
COc1nc(N2CCC3(CCCO3)C2)ccc1Nc1ncc(Cl)c(Nc2ccccc2P(C)(C)=O)n1 (stereo not drawn) [Embodiment 5] | – | – | – | – | – | – | – | 8.2 nM | 4 nM | –
COc1ncc(N2CC3(COC3)C2)cc1Nc1ncc(Cl)c(Nc2ccccc2P(C)(C)=O)n1 [Embodiment 18] | – | – | – | – | – | – | – | 4.6 nM | 86.1 nM | –
COc1c(Nc2ncc(Cl)c(Nc3ccccc3P(C)(C)=O)n2)ccnc1N1CC2(CCOC2)C1 [Embodiment 20] | – | – | – | – | – | – | – | 1.6 nM | 22 nM | –
COc1nc(N2CC3(CCOC3)C2)ccc1Nc1ncc(Cl)c(Nc2ccccc2P(C)(C)=O)n1 [Embodiment 9] | 0.2 | 0.489 µM·h | 30 min | 2600 nM | 2.48 µM·h | 30 min | 604 nM | 7.8 nM | 4.7 nM | half-life [1, 5]: 21.6 min; half-life [1, 8]: 33.6 min
COc1nc(N2CC3(CCCOC3)C2)ccc1Nc1ncc(Cl)c(Nc2ccccc2P(C)(C)=O)n1 [Embodiment 6] | – | – | – | – | – | – | – | 2.9 nM | 3.3 nM | –
COc1ncc(N2CCC3(CCOCC3)C2)cc1Nc1ncc(Cl)c(Nc2ccccc2P(C)(C)=O)n1 [Embodiment 17] | – | – | – | – | – | – | – | 27.7 nM | – | –
COc1nc(N2CCC3(CCOC3)C2)ccc1Nc1ncc(Cl)c(Nc2ccccc2P(C)(C)=O)n1 (stereo not drawn) [Embodiment 1] | – | – | – | – | – | – | – | 21 nM | – | –
COc1ncc(N2CC3(CCOCC3)C2)cc1Nc1ncc(Cl)c(Nc2ccccc2P(C)(C)=O)n1 [Embodiment 19] | – | – | – | – | – | – | – | 11.9 nM | – | –
COc1nc(N2CC3(CC(OC)C3)C2)ccc1Nc1ncc(Cl)c(Nc2ccccc2P(C)(C)=O)n1 [Embodiment 11] | 0.41 | 0.597 µM·h | 30 min | 1560 nM | 1.45 µM·h | 30 min | 698 nM | 5.3 nM | 4.5 nM | half-life [1, 5]: 22.2 min; half-life [1, 8]: 28.2 min
COc1nc(N2CC3(CCOCC3)C2)ccc1Nc1ncc(Cl)c(Nc2ccccc2P(C)(C)=O)n1 [Embodiment 3] | 0.14 | 0.192 µM·h | 30 min | 1180 nM | 1.39 µM·h | 30 min | 217 nM | 6.2 nM | 4.3 nM | half-life [1, 8]: 35.4 min
COc1nc(N2CCC3(CCOCC3)C2)ccc1Nc1ncc(Cl)c(Nc2ccccc2P(C)(C)=O)n1 [Embodiment 10] | – | – | – | – | – | – | – | 21.6 nM | – | –
COc1nc(N2CC3(CCCCO3)C2)ccc1Nc1ncc(Cl)c(Nc2ccccc2P(C)(C)=O)n1 [Embodiment 7] | – | – | – | – | – | – | – | 8.5 nM | 10.9 nM | –
CCNc1nc(Nc2cc(F)c(C(=O)N3CCOCC3)cc2OC)ncc1C(F)(F)F [GNE-7915] | – | – | – | – | – | – | – | – | – | inhibition of LRRK2 phosphorylation in brain tissues [3]: inhibits FRRK2 phosphorylation
COc1ncc(N2CC3(CCOC3)C2)cc1Nc1ncc(Cl)c(Nc2ccccc2P(C)(C)=O)n1 [Embodiment 16] | – | – | – | – | – | – | – | 10.6 nM | – | –
COc1c(Nc2ncc(Cl)c(Nc3ccccc3P(C)(C)=O)n2)ccnc1N1CC2(CCC2)C1 [Embodiment 21] | – | – | – | – | – | – | – | 36.8 nM | – | –
COc1nc(N2CC3(C2)CC3(F)F)ccc1Nc1ncc(Cl)c(Nc2ccccc2P(C)(C)=O)n1 [Embodiment 15] | 0.54 | 2.15 µM·h | 30 min | 2150 nM | 4.02 µM·h | 30 min | 1436 nM | 7.4 nM | – | half-life [1, 5]: 37.8 min; half-life [1, 8]: 45 min
COc1nc(N2CC3(CCC3)C2)ccc1Nc1ncc(Cl)c(Nc2ccccc2P(C)(C)=O)n1 [Embodiment 14] | 0.96 | 4.2 µM·h | 60 min | 1650 nM | 4.39 µM·h | 60 min | 2042 nM | 15.2 nM | – | –
